Target: T1, Monoglyceride lipase (Homo sapiens, UniProt Q99685)
T1 sequence (Q99685 whole entry): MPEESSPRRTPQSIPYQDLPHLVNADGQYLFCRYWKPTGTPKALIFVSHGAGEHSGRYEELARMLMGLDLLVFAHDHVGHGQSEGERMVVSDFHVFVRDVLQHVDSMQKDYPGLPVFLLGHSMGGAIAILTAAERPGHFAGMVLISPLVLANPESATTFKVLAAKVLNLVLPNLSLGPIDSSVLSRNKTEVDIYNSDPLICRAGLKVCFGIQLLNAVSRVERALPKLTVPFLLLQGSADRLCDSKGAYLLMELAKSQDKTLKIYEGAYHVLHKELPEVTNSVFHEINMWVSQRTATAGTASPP
Assay: MAGL Inhibitory Activity Assay
Method: MAGL inhibitory activity by determining the enzymatic activity by following the hydrolysis of the natural substrate 2-arachidonoylglycerol (2-AG) resulting in arachidonic acid, which can be followed by mass spectrometry. This assay is hereinafter abbreviated “2-AG assay”. The 2-AG assay was carried out in 384 well polypropylene assay plates. Compound dilutions were made in 100% DMSO in a polypropylene plate in 3-fold dilution steps to give a final concentration range in the assay from 12.5 μM to 0.8 pM. Compound dilutions were added to MAGL protein in assay buffer (50 mM TRIS, 1 mM EDTA, 0.01% (v/v) Tween-20, 2.5% (v/v) DMSO). After shaking, the plate was incubated for 15 min at RT. To start the reaction, 2-arachidonoylglycerol in assay buffer was added. The final concentrations in the assay was 50 pM for MAGL protein and […] 2-arachidonoylglyerol. After shaking and 30 min incubation at RT, the reaction was quenched by the addition of two assay volumes of acetonitrile containing 4 μM of d8-arachidonic acid. The amount of arachidonic acid formed was traced by an online SPE system (Agilent Rapidfire) coupled to a triple quadrupole mass spectrometer.

- IC50: 152 nM
SMILES: COc1cccc(C(=O)N2CCc3c(nn(C)c3-c3cc(Cl)cc(CC(N)=O)c3)[C@H]2C)c1Cl [US20250059185, Example 15]

From BindingDB's records for patent US20250059185 (Hoffmann-La Roche, 2025)
